Results published in patent US9113629B2, “4-amino-6-(4-substituted-phenyl)-picolinates and 6-amino-2-(4-substituted-phenyl)-pyrimidine-4-carboxylates and their use as herbicides” (DOW AGROSCIENCES LLC, priority 2013, dated 2015).

system: LAMSS; assay: Pre-emergent Test III, preemergent activity in wheat and barley; assay type: in vivo; conditions: 35 g ai/ha
Description: (§1) Pre-emergent Test III. Seeds of test species were planted into square plastic pots (10 cm wide) containing sandy loam soil. After planting, all pots were sub-irrigated 16 h prior to compound application. A weighed amount, determined by the highest rate to be tested, of each test compound was placed in a 25 mL glass vial and was dissolved in 4 mL of a 97:3 v/v mixture of acetone and DMSO to obtain concentrated stock solutions. […] The concentrated stock solutions obtained were diluted with 20 mL of an aqueous mixture containing water and 0.02% w/v (weight/volume) of Triton X-155 to obtain spray solutions containing the highest application rates. Additional application rates were obtained by serial dilution of 12 mL of the high rate solution into a solution containing 2 mL of 97:3 v/v mixture of acetone and DMSO and 10 mL of an aqueous mixture containing water and 0.02% w/v (weight/volume) of Triton X-155 to obtain 1⁄2×, 1⁄4×, 1⁄8× and 1/16× rates of the high rate. Compound requirements are based upon a 12 mL application volume at a rate of 187 liters per hectare (L/ha). Formulated compounds were applied to the soil surface with an overhead Mandel track sprayer equipped with […] nozzles calibrated to deliver 187 L/ha over an application area of 0.503 square meters. Control pots were sprayed in the same manner with the solvent blank. The treated pots and control pots were placed in a greenhouse as described above and watered through surface irrigation. After 21 d, the condition of the test pots as compared with that of the untreated pots was determined visually and scored on a scale of 0 to 100 percent where 0 corresponds to no herbicidal effect and 100 corresponds to plant death or lack of emergence from the soil. By applying the well-accepted probit analysis as described by J. Berkson in Journal of the American Statistical Society, 48, 565 (1953) and by D. Finney in “Probit Analysis” Cambridge University Press (1952), the above data can be used to calculate GR20, GR50, GR80 and GR90 values, which are defined as growth reduction factors that correspond to the effective dose of herbicide required to kill or control 20 percent, 50 percent, 80 percent or 90 percent, respectively, of a target plant.

Structure (SMILES) | Visual Growth Reduction (%) 21 Days After Application, LAMSS
Nc1c(F)c(-c2ccc(Br)cc2)nc(C(=O)O)c1Cl [Compound 20] | A (95-100)
Nc1c(F)c(-c2cc(F)c(Br)cc2F)nc(C(=O)O)c1Cl [Compound 42, 4-amino-6-(4-bromo-2,5-difluorophenyl)-3-chloro-5-fluoropicolinic acid] | A (95-100)

same assay, conditions: 70 g ai/ha

Structure (SMILES) | Visual Growth Reduction (%) 21 Days After Application, LAMSS
Nc1c(F)c(-c2ccc(Br)cc2)nc(C(=O)O)c1Cl [Compound 20] | A (95-100)
Nc1c(F)c(-c2cc(F)c(Br)cc2F)nc(C(=O)O)c1Cl [Compound 42, 4-amino-6-(4-bromo-2,5-difluorophenyl)-3-chloro-5-fluoropicolinic acid] | A (95-100)

same assay, conditions: 21 days after application, dose to kill or control 50%, probit analysis

Structure (SMILES) | GR50 LAMSS [g ai/ha]
Nc1c(F)c(-c2ccc(Br)cc2)nc(C(=O)O)c1Cl [Compound 20] | 6
Nc1c(F)c(-c2cc(F)c(Br)cc2F)nc(C(=O)O)c1Cl [Compound 42, 4-amino-6-(4-bromo-2,5-difluorophenyl)-3-chloro-5-fluoropicolinic acid] | 1

same assay, conditions: 21 days after application, dose to kill or control 80%, probit analysis

Structure (SMILES) | GR80 LAMSS [g ai/ha]
Nc1c(F)c(-c2ccc(Br)cc2)nc(C(=O)O)c1Cl [Compound 20] | 9
Nc1c(F)c(-c2cc(F)c(Br)cc2F)nc(C(=O)O)c1Cl [Compound 42, 4-amino-6-(4-bromo-2,5-difluorophenyl)-3-chloro-5-fluoropicolinic acid] | 1

system: TRZSS; assay: as above; assay type: in vivo, Triticum aestivum; conditions: 35 g ai/ha
Description: as §1

Structure (SMILES) | Visual Growth Reduction (%) 21 Days After Application, TRZSS
Nc1c(F)c(-c2ccc(Br)cc2)nc(C(=O)O)c1Cl [Compound 20] | E (45-59)
Nc1c(F)c(-c2cc(F)c(Br)cc2F)nc(C(=O)O)c1Cl [Compound 42, 4-amino-6-(4-bromo-2,5-difluorophenyl)-3-chloro-5-fluoropicolinic acid] | E (45-59)

same assay, conditions: 70 g ai/ha

Structure (SMILES) | Visual Growth Reduction (%) 21 Days After Application, TRZSS
Nc1c(F)c(-c2ccc(Br)cc2)nc(C(=O)O)c1Cl [Compound 20] | E (45-59)
Nc1c(F)c(-c2cc(F)c(Br)cc2F)nc(C(=O)O)c1Cl [Compound 42, 4-amino-6-(4-bromo-2,5-difluorophenyl)-3-chloro-5-fluoropicolinic acid] | E (45-59)

same assay, conditions: 21 days after application, dose to kill or control 20%, probit analysis

Structure (SMILES) | GR20 TRZSS [g ai/ha]
Nc1c(F)c(-c2ccc(Br)cc2)nc(C(=O)O)c1Cl [Compound 20] | 10
Nc1c(F)c(-c2cc(F)c(Br)cc2F)nc(C(=O)O)c1Cl [Compound 42, 4-amino-6-(4-bromo-2,5-difluorophenyl)-3-chloro-5-fluoropicolinic acid] | 5

system: APESV; assay: as above; assay type: in vivo, Apera spica-venti; conditions: 35 g ai/ha
Description: as §1

Structure (SMILES) | Visual Growth Reduction (%) 21 Days After Application, APESV
Nc1c(F)c(-c2ccc(Br)cc2)nc(C(=O)O)c1Cl [Compound 20] | A (95-100)
Nc1c(F)c(-c2cc(F)c(Br)cc2F)nc(C(=O)O)c1Cl [Compound 42, 4-amino-6-(4-bromo-2,5-difluorophenyl)-3-chloro-5-fluoropicolinic acid] | B (85-94)

same assay, conditions: 70 g ai/ha

Structure (SMILES) | Visual Growth Reduction (%) 21 Days After Application, APESV
Nc1c(F)c(-c2ccc(Br)cc2)nc(C(=O)O)c1Cl [Compound 20] | A (95-100)
Nc1c(F)c(-c2cc(F)c(Br)cc2F)nc(C(=O)O)c1Cl [Compound 42, 4-amino-6-(4-bromo-2,5-difluorophenyl)-3-chloro-5-fluoropicolinic acid] | A (95-100)

same assay, conditions: 21 days after application, dose to kill or control 50%, probit analysis

Structure (SMILES) | GR50 APESV [g ai/ha]
Nc1c(F)c(-c2ccc(Br)cc2)nc(C(=O)O)c1Cl [Compound 20] | 6
Nc1c(F)c(-c2cc(F)c(Br)cc2F)nc(C(=O)O)c1Cl [Compound 42, 4-amino-6-(4-bromo-2,5-difluorophenyl)-3-chloro-5-fluoropicolinic acid] | 12

same assay, conditions: 21 days after application, dose to kill or control 80%, probit analysis

Structure (SMILES) | GR80 APESV [g ai/ha]
Nc1c(F)c(-c2ccc(Br)cc2)nc(C(=O)O)c1Cl [Compound 20] | 16
Nc1c(F)c(-c2cc(F)c(Br)cc2F)nc(C(=O)O)c1Cl [Compound 42, 4-amino-6-(4-bromo-2,5-difluorophenyl)-3-chloro-5-fluoropicolinic acid] | 27

system: LOLSS; assay: as above; assay type: in vivo, Lolium multiflorum, Lolium rigidum; conditions: 35 g ai/ha
Description: as §1

Structure (SMILES) | Visual Growth Reduction (%) 21 Days After Application, LOLSS
Nc1c(F)c(-c2ccc(Br)cc2)nc(C(=O)O)c1Cl [Compound 20] | G (0-29)
Nc1c(F)c(-c2cc(F)c(Br)cc2F)nc(C(=O)O)c1Cl [Compound 42, 4-amino-6-(4-bromo-2,5-difluorophenyl)-3-chloro-5-fluoropicolinic acid] | G (0-29)

same assay, conditions: 70 g ai/ha

Structure (SMILES) | Visual Growth Reduction (%) 21 Days After Application, LOLSS
Nc1c(F)c(-c2ccc(Br)cc2)nc(C(=O)O)c1Cl [Compound 20] | E (45-59)
Nc1c(F)c(-c2cc(F)c(Br)cc2F)nc(C(=O)O)c1Cl [Compound 42, 4-amino-6-(4-bromo-2,5-difluorophenyl)-3-chloro-5-fluoropicolinic acid] | G (0-29)

same assay, conditions: 21 days after application, dose to kill or control 50%, probit analysis

Structure (SMILES) | GR50 LOLSS [g ai/ha]
Nc1c(F)c(-c2ccc(Br)cc2)nc(C(=O)O)c1Cl [Compound 20] | >70
Nc1c(F)c(-c2cc(F)c(Br)cc2F)nc(C(=O)O)c1Cl [Compound 42, 4-amino-6-(4-bromo-2,5-difluorophenyl)-3-chloro-5-fluoropicolinic acid] | >70

same assay, conditions: 21 days after application, dose to kill or control 80%, probit analysis

Structure (SMILES) | GR80 LOLSS [g ai/ha]
Nc1c(F)c(-c2ccc(Br)cc2)nc(C(=O)O)c1Cl [Compound 20] | >70
Nc1c(F)c(-c2cc(F)c(Br)cc2F)nc(C(=O)O)c1Cl [Compound 42, 4-amino-6-(4-bromo-2,5-difluorophenyl)-3-chloro-5-fluoropicolinic acid] | >70

system: HORSS; assay: as above; assay type: in vivo, Hordeum vulgare; conditions: 35 g ai/ha
Description: as §1

Structure (SMILES) | Visual Growth Reduction (%) 21 Days After Application, HORSS
Nc1c(F)c(-c2ccc(Br)cc2)nc(C(=O)O)c1Cl [Compound 20] | F (30-44)
Nc1c(F)c(-c2cc(F)c(Br)cc2F)nc(C(=O)O)c1Cl [Compound 42, 4-amino-6-(4-bromo-2,5-difluorophenyl)-3-chloro-5-fluoropicolinic acid] | F (30-44)

same assay, conditions: 70 g ai/ha

Structure (SMILES) | Visual Growth Reduction (%) 21 Days After Application, HORSS
Nc1c(F)c(-c2ccc(Br)cc2)nc(C(=O)O)c1Cl [Compound 20] | E (45-59)
Nc1c(F)c(-c2cc(F)c(Br)cc2F)nc(C(=O)O)c1Cl [Compound 42, 4-amino-6-(4-bromo-2,5-difluorophenyl)-3-chloro-5-fluoropicolinic acid] | E (45-59)

same assay, conditions: 21 days after application, dose to kill or control 20%, probit analysis

Structure (SMILES) | GR20 HORSS [g ai/ha]
Nc1c(F)c(-c2ccc(Br)cc2)nc(C(=O)O)c1Cl [Compound 20] | 17
Nc1c(F)c(-c2cc(F)c(Br)cc2F)nc(C(=O)O)c1Cl [Compound 42, 4-amino-6-(4-bromo-2,5-difluorophenyl)-3-chloro-5-fluoropicolinic acid] | 11

system: SETVI; assay: as above; assay type: in vivo, Setaria viridis; conditions: 35 g ai/ha
Description: as §1

Structure (SMILES) | Visual Growth Reduction (%) 21 Days After Application, SETVI
Nc1c(F)c(-c2ccc(Br)cc2)nc(C(=O)O)c1Cl [Compound 20] | F (30-44)
Nc1c(F)c(-c2cc(F)c(Br)cc2F)nc(C(=O)O)c1Cl [Compound 42, 4-amino-6-(4-bromo-2,5-difluorophenyl)-3-chloro-5-fluoropicolinic acid] | E (45-59)

same assay, conditions: 70 g ai/ha

Structure (SMILES) | Visual Growth Reduction (%) 21 Days After Application, SETVI
Nc1c(F)c(-c2ccc(Br)cc2)nc(C(=O)O)c1Cl [Compound 20] | B (85-94)
Nc1c(F)c(-c2cc(F)c(Br)cc2F)nc(C(=O)O)c1Cl [Compound 42, 4-amino-6-(4-bromo-2,5-difluorophenyl)-3-chloro-5-fluoropicolinic acid] | D (60-74)

same assay, conditions: 21 days after application, dose to kill or control 50%, probit analysis

Structure (SMILES) | GR50 SETVI [g ai/ha]
Nc1c(F)c(-c2ccc(Br)cc2)nc(C(=O)O)c1Cl [Compound 20] | 32
Nc1c(F)c(-c2cc(F)c(Br)cc2F)nc(C(=O)O)c1Cl [Compound 42, 4-amino-6-(4-bromo-2,5-difluorophenyl)-3-chloro-5-fluoropicolinic acid] | 36

same assay, conditions: 21 days after application, dose to kill or control 80%, probit analysis

Structure (SMILES) | GR80 SETVI [g ai/ha]
Nc1c(F)c(-c2ccc(Br)cc2)nc(C(=O)O)c1Cl [Compound 20] | 71
Nc1c(F)c(-c2cc(F)c(Br)cc2F)nc(C(=O)O)c1Cl [Compound 42, 4-amino-6-(4-bromo-2,5-difluorophenyl)-3-chloro-5-fluoropicolinic acid] | >70
